Results: BindingDB's records for PubMed 30282319 (Polytechnic Institute of Braganca, 2018)
≈ marks a conversion by molar mass, not a printed value.

Target: alpha-glucosidase (Saccharomyces cerevisiae)
Experiment: Inhibition of Saccharomyces cerevisiae alpha-glucosidase assessed as release of p-nitrophenol using pNPG as substrate preincubated for 15 mins followed by substrate addition and measured after 15 mins by plate reader analysis

SMILES	IC50
COc1cc(OC)c2c(=O)c3c(O)c(OC)ccc3oc2c1O	59 µg/mL (≈ 185 µM)
COc1c(O)cc2oc3ccc(O)c(OC)c3c(=O)c2c1O	63 µg/mL (≈ 207 µM)
COc1ccc2oc3ccc(O)cc3c(=O)c2c1	77 µg/mL (≈ 318 µM)
O=c1c2cc(O)ccc2oc2cc(O)cc(O)c12 [1,3,7-trihydroxy-9H-xanthen-9-one]	3.2 µg/mL (≈ 13.1 µM)
O=c1c2cc(O)ccc2oc2cccc(O)c12 [CHEBI:4946]	36 µg/mL (≈ 158 µM)

Results, then the compound that gave them:

IC50	SMILES
7.6 µg/mL (≈ 27.7 µM)	COc1c(O)cc2oc3ccc(O)cc3c(=O)c2c1O
13 µg/mL (≈ 47.4 µM)	COc1c(O)cc(O)c2c(=O)c3cc(O)ccc3oc12
13 µg/mL (≈ 45.1 µM)	COc1cc(O)c2c(=O)c3cc(O)ccc3oc2c1OC
49 µg/mL (≈ 180 µM)	COc1ccc2oc3ccc(O)cc3c(=O)c2c1OC
28 µg/mL (≈ 108 µM)	COc1ccc(O)c2c(=O)c3cc(O)ccc3oc12 [CHEBI:67553]
